In ChEMBL document CHEMBL1145291, “Metal complexes with superoxide dismutase-like activity as candidates for anti-prion drug” (Bioorg Med Chem Lett, 2006):

Tests used:
ScN2a [1] = experiment: Inhibition of PrP-res formation in mouse ScN2a cells relative to control; assay type: functional, cell-based
[2] = Inhibition of PrP-res formation in prion Fukuoka1 strain infected mouse N2a#58 cells relative to control; assay type: functional
ScN2a [3] = experiment: Cytotoxicity against mouse ScN2a cells up to 1 uM; assay type: cell-based
[4] = Cytotoxicity against prion Fukuoka1 strain infected mouse N2a#58 cells up to 1uM; assay type: cell-based
ScN2a [5] = experiment: Cytotoxicity against mouse ScN2a cells at 100 uM; assay type: cell-based
[6] = Cytotoxicity against prion Fukuoka1 strain infected mouse N2a#58 cells at 100 uM; assay type: cell-based

| SMILES | IC50 (ScN2a [1]) [nM] | IC50 [2] [nM] | Activity (ScN2a [3]) | Activity [4] | Activity (ScN2a [5]) | Activity [6] |
| --- | --- | --- | --- | --- | --- | --- |
| C[n+]1ccc(-c2c3nc(c(-c4cc[n+](C)cc4)c4ccc([nH]4)c(-c4cc[n+](C)cc4)c4nc(c(-c5cc[n+](C)cc5)c5ccc2[nH]5)C=C4)C=C3)cc1 | 130 | 160 |  |  |  |  |
| c1ccc2cc(-c3ccc4ccccc4n3)ncc2c1 | 5 | 250 | Not Active | Not Active |  |  |
| O=C([O-])c1cc(-c2cc(C(=O)[O-])c3ccccc3n2)nc2ccccc12.[Na+].[Na+] |  |  | Not Active | Not Active |  |  |
| O=C(O)c1ccc(-c2c3nc(c(-c4ccc(C(=O)O)cc4)c4ccc([nH]4)c(-c4ccc(C(=O)O)cc4)c4ccc([nH]4)c(-c4ccc(C(=O)O)cc4)c4nc2C=C4)C=C3)cc1 | 250 | 160 |  |  |  |  |
| Cc1cc(-c2ccccc2)c2ccc3c(-c4ccccc4)cc(C)nc3c2n1 [BATHOCUPROINE] | 80 | 200 | Not Active | Not Active |  |  |
| Cc1ccc2ccc3ccc(C)nc3c2n1 [NEOCUPROINE] | 80 |  | Not Active | Not Active |  |  |
| Oc1cccc2cccnc12 [OXYQUINOLINE] |  |  |  |  | Active | Active |
| c1cnc2c(c1)ccc1cccnc12 [PHENANTHROLINE] |  |  |  |  | Active | Active |
| c1ccc(-c2cccc(-c3ccccn3)n2)nc1 [TERPYRIDINE] |  |  |  |  | Active | Active |
| O=S(=O)(O)c1ccc(-c2c3nc(c(-c4ccc(S(=O)(=O)O)cc4)c4ccc([nH]4)c(-c4ccc(S(=O)(=O)O)cc4)c4ccc([nH]4)c(-c4ccc(S(=O)(=O)O)cc4)c4nc2C=C4)C=C3)cc1 [TETRAPHENYLPORPHINE TETRASULFONIC ACID] | 200 | 160 |  |  |  |  |
| C1=Cc2nc1c(-c1ccccc1)c1nc(c(-c3ccccc3)c3ccc([nH]3)c(-c3ccccc3)c3ccc([nH]3)c2-c2ccccc2)C=C1 [TETRAPHENYLPORPHYRIN] | 10 | 320 |  |  |  |  |
